These results are taken from patent US5679521A, “Steroid 5A-reductases” (priority 1995, dated 1997).

Assay [1] concerns major human prostate 5α-reductase enzyme. Particulars: Liang et al., 1985; cited from earlier work.
Assay [2] addresses T1, human steroid 5α-reductase 1 (Homo sapiens, UniProt P18405).
T1 sequence (P18405 1-259): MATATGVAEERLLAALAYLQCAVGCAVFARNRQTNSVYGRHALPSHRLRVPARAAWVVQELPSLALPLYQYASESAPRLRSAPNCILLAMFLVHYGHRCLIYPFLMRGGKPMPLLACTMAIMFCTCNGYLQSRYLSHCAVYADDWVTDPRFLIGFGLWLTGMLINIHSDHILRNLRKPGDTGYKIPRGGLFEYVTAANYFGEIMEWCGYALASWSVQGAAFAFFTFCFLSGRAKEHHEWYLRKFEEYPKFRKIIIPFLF
Nature of the assay: finasteride inhibition of steroid 5α-reductase 1 expressed in COS cells (Example 6). Further details: Human 5α-reductase 1 is 259 residues long; expressed in transfected cells; host or cells: simian COS-M6 cells, pCMV4 vector. The format is biochemical.

Assay [3] has as its target T2, human 5α-reductase 1 (Homo sapiens, UniProt P18405).
T2 construct: Human 5α-reductase 1 is 259 residues long; expressed in transfected cells; host or cells: human embryonic kidney 293 cells
T2 sequence (P18405 1-259): T1 sequence (P18405 1-259)
Put plainly: finasteride inhibition of 5α-reductase 1 expressed in human embryonic kidney 293 cells (FIG. 15B). The format is biochemical. Here is the method:
(§1) FIGS. 15A-15B. Characterization of expressed human 5α-reductase isozymes with regard to pH optima and finasteride inhibition. Expression plasmids containing the 5α-reductase 1 or 2 cDNAs (FIGS. 7 and 13, respectively) were transfected into human embryonic kidney 293 cells. […] Reductase enzyme activity obtained in extracts of transfected human embryonic kidney 293 cells in the absence of inhibitor was defined as 100%. In both panels, conversion into dihydrotestosterone was determined, after 10 minute incubations, by thin layer chromatography. Protein concentrations in cell extracts were measured as in Lowry, 1951.
(§2) Steroid 5α-Reductase Assay. […] Termination, organic extraction and TLC were performed as described in Example 1, using a chloroform-ethyl acetate (3:1, v/v) mobile phase in the TLC.
(§3) The properties of the two human steroid 5α-reductase isozymes were also compared directly, following expression in human embryonic kidney 293 cells.

Assay [4] concerns steroid 5α-reductase. The conditions noted are these: Liang et al., 1985; cited from earlier work.
The target in assay [5] is T1, human steroid 5α-reductase 1. Nature of the assay: steroid 5α-reductase activity/inhibition in vitro, homogenates of COS cells expressing human steroid 5α-reductase 1 cDNA (Table III). The conditions noted are these: apparent Ki, human enzyme; two [14C]testosterone concentrations; Dixon plots. The text has this: (§4) Expression Vector Construction. A rat steroid 5α-reductase cDNA corresponding to nucleotides 1-1962 (see Example 1) was ligated into the pCMV4 expression vector (Andersson et al., 1989b). A human cDNA corresponding to nucleotides 1 to 842 of FIG. 7 was initially ligated into pCMV4. […] After amplification, the product was ligated into pCMV4.
(§5) Expression of Steroid 5α-Reductase 1 cDNAs in COS Cells. Simian COS-M6 cells were transfected as described by Andersson et al. (1989b). The assay of steroid 5α-reductase activity in intact cells was carried out as described in Example 1 except that [^14 C]-labeled steroid dissolved in ethanol were added to the transfected cell medium and subsequent organic extractions were carried out with dichloromethane. TLC and liquid scintillation counting were performed as described in Example 1.
(§6) To assay steroid 5α-reductase activity in vitro, cells were harvested 48 hours after transfection, washed once with phosphate buffered saline and either frozen in liquid N2 or homogenized directly with a Polytron in 10 mM potassium phosphate (pH 7.4), 150 mM KCl and 1 mM EDTA, at a protein concentration of 2 mg/ml. A typical assay contained 10 to 50 μg of cell homogenate protein in 0.5 ml of 0.1M potassium phosphate buffer (pH 6.6, rat enzyme; pH 7.0, human enzyme). Steroids were added in 5 μl ethanol, and the reaction was initiated by the addition of NADPH to a final concentration of 2-5 mM. Incubations were carried out for 10 min at 37° C. and terminated by the addition of 5 ml dichloromethane. Organic execrations and thin-layer chromatography analysis were as described above.
(§7) The apparent Km and Vmax values in this system were determined in vitro with five different steroid substrates (Table III).
(§8) The apparent Ki values were then determined for 4-aza-steroid (4-MA and MK-906) inhibition of 5α-reductases expressed in COS cells. […] The data obtained were analyzed using Dixon plots to determine the type of inhibition and the apparent Ki value (Dixon et al., 1979).
(§9) COS call transfaction, cell homogonate preparation, and enzyme assay were
(§10) carried out as described in Materials and Methods. Each Km value
(§11) represents the average of at least two experiments carried out on
(§12) different days using cell lysates prepared from different transfections.

Assay [6] deals with T3, rat steroid 5α-reductase (Rattus norvegicus, UniProt P24008).
T3 sequence (P24008 5-259): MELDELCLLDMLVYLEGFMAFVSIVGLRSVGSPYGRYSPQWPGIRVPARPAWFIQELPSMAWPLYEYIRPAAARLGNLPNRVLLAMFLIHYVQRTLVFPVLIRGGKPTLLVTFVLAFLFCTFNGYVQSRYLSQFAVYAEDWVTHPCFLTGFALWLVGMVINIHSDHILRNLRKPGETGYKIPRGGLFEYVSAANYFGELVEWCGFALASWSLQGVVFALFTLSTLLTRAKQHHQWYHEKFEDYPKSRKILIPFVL
Put plainly: steroid 5α-reductase assay in intact transfected COS cells, rat cDNA. The conditions noted are these: rat enzyme expressed in COS cells; 37° C., 2 hr. The format is cell-based. Details: the open reading frame would encode a hydrophobic protein of 255 amino acids; expressed in transfected cells; host or cells: simian COS-M6 cells, pCMV4 vector.
Description: as §4, §5
COS cells were transiently transfected with expression vectors harboring the rat or human steroid 5α-reductase 1 cDNAs, or with the pCMV4 vector alone.
IC50 values for MK-906 and 4-MA inhibition of 5α-reductases expressed in COS cells were also determined. […] See Example 6 and FIG. 15, for further analysis of 4-aza-steroid inhibition.

In assay [7] the test system is prostate extract and steroid 5α-reductase 1. Nature of the assay: finasteride inhibition of mixed aliquots of prostate extract and steroid 5α-reductase 1 extract. Particulars: aliquots with equivalent 5α-reductase activity mixed. The format is biochemical, human.
The target of assay [8] is T3, rat steroid 5α-reductase. Put plainly: steroid 5α-reductase activity/inhibition in vitro, homogenates of COS cells expressing rat cDNA (Table III). The conditions noted are these: apparent Ki, rat enzyme; two [14C]testosterone concentrations; Dixon plots.
Description: as §4, §5, §6, §7, §8, §9, §10, §11, §12

For assay [9], the target named is T4, human 5α-reductase 2 (Homo sapiens, UniProt P31213).
T4 construct: predicted to be a hydrophobic polypeptide of 254 amino acids; expressed in transfected cells; host or cells: human embryonic kidney 293 cells, pCMV expression vector
T4 sequence (P31213 1-254 L89V): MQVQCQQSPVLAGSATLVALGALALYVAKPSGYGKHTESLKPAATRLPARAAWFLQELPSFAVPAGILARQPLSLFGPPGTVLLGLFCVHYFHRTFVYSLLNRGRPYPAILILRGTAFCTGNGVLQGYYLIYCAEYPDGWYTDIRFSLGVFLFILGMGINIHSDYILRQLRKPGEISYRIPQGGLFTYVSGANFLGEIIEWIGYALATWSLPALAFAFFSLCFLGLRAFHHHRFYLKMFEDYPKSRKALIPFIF
Put plainly: finasteride inhibition of 5α-reductase 2 expressed in human embryonic kidney 293 cells (FIG. 15B). Type of assay: biochemical. On the procedure:
as §1, §2, §3

Assay [10] has as its target T5, human 5α-reductase 2 (Homo sapiens, UniProt P31213, L89V).
T5 construct: predicted to be a hydrophobic polypeptide of 254 amino acids; expressed in transfected cells; host or cells: human embryonic kidney 293 cells, pCMV expression vector
T5 sequence (P31213 1-254 L89V): T4 sequence (P31213 1-254 L89V)
The description is as above. The format is biochemical. Particulars: 5α-reductase 2, 293 cells. Here is the method:
as §1, §2, §3

Assay [11] deals with T6, human prostate 5α-reductase (prostate extract) (Homo sapiens, UniProt P31213).
T6 construct: Prostate tissue was obtained from subjects undergoing surgical treatment for benign prostatic hyperplasia; from tissue; host or cells: human prostate (benign prostatic hyperplasia), membrane extract
T6 sequence (P31213 1-254): T4 sequence (P31213 1-254 L89V) with V89L
Nature of the assay: finasteride inhibition of 5α-reductase in human prostate extract. Type of assay: biochemical.

For assay [12], the target named is T3, rat steroid 5α-reductase. Further details: the open reading frame would encode a hydrophobic protein of 255 amino acids; expressed in transfected cells; host or cells: simian COS-M6 cells, pCMV4 vector. Particulars: simian COS cells; Andersson & Russell, 1990; cited from earlier work.

A word on the IC50: it is the concentration that gives 50% inhibition. Read a low IC50 as higher potency.

Residue numbers refer to the chain shown, from its start. Values joined by “and” are separate entries in the source; they are usually repeats but may differ in a detail not shown here. Identical values can stand only once.

For `CC(C)(C)NC(=O)[C@H]1CC[C@H]2[C@@H]3CC[C@H]4NC(=O)C=C[C@]4(C)[C@H]3CC[C@]12C` [MK-906, 17β-N-t-butylcarbamoyl-4-aza-5α-androst-1-en-3-one], the type of inhibition entry was “competitive inhibitor” in assay [1] and “competitive inhibitors” in [4]. In addition, the IC50 in assay [2] is 10000 nM; in assay [3], about 900 nM; in assay [9], about 30 nM; in assay [11] it was 10 nM. Also, the Ki in assay [3] (5α-reductase 1, 293 cells) is about 230 nM; in assay [5] it was 340 to 620 nM and 340 nM and 380 nM and 620 nM; in assay [8] it was 3 to 5 nM and 3 nM and 4 nM and 5 nM; in assay [10], about 5 nM. Moreover, the “IC50 inhibition, relative potency of MK-906 and 4-MA” value in assay [6] is “equipotent”. Moreover, the “inhibition curve of mixed extracts” value in assay [7] is recorded as “biphasic”. The “inhibition of rat steroid 5α-reductase” value in assay [12] was “inhibited”.
